Tests used:
[1] = test system: GSH; test: Intracellular GSH levels; type: cell-based
Text: However, more recent findings indicate that W-188 may also downregulate expression of endogenous Bcl-2 in cells that naturally have high levels of this protein.

[2] = test system: Wehi-Hsp70 fibrosarcoma cells; test: 20 h DNA fragmentation assay in Wehi cells overexpressing Hsp70; type: cell-based, murine; conditions: etoposide + 20 μM W-188, FIG. 8
Protocol: This finding was confirmed using the Wehi murine fibrosarcoma cell line that is transfected with and overexpresses Hsp70, as described previously (Jaattela, M., et al., EMBO J. 1998, 17:6124). Wehi transfected with Hsp70 or vector control were cultured with etoposide ±20 μM W-188 in a 20 h DNA fragmentation assay.

[3] = test system: AP24; test: Etoposide-induced activation of AP24 (AAPVase) in HL-60 and PW leukemia lines; type: cell-based, human; conditions: for AP24 Activity (AAPVase, nmol/mg/hr): etoposide 50 μM + W-188 5 μg/ml, 3 h
[4] = test system: HL-60 cells; test: Subcellular distribution of W-188 in HL-60 cells (absorbance at 380 nm); type: in vitro ADME, human
Protocol: A method to measure the subcellular localization of this compound was developed by the inventors of the present invention. Because of its distinctive absorbance spectrum, W-188 can be detected in cell and tissue extracts by measuring absorbance at 380 nm, and quantitated relative to a standard curve constructed with known amounts of W-188. HL-60 and PW cells containing vector control or overexpressing Bcl-2 were incubated with W-188 followed by cell lysis and isolation of nuclei, mitochondria, and cytotol by differential centrifugation.
Furthermore, it can be seen that nuclei and mitochondria from cells overexpressing Bcl-2 accumulated higher levels of W-188 than the vector control cells. These findings are consistent with the hypothesis that W-188 may counteract the protective effects of Bcl-2 mediated at both the mitochondria as well as the nucleus.

[5] = test system: P3X63Ag8.653 (P3X) cells; test: Drug-induced DNA fragmentation in Bcl-XL-overexpressing myeloma cells; type: cell-based, murine; conditions: W-188 0.1 μg/mL; etoposide, chlorambucil, YW-200; 24 h; FIG. 5
Protocol: It has been reported that the murine myeloma, SP2/0, is highly sensitive to cycloheximide-induced apoptosis, whereas the related murine myeloma, P3X63Ag8.653 (P3X), was resistant (Gauthier, E. R., et al., Cancer Res., 1996, 56:1451). This resistance was attributed to natural high levels of expression of Bcl-XL in the absence of any detectable Bcl-2. In contrast, SP2 expressed neither Bcl-2 or Bcl-XL. Thus, normal (SP2) or Bcl-XL-overexpressing cells (P3X) were treated with chemotherapeutic drugs ±0.1 μg/ml W-188. After 24 h, % DNA fragmentation was measured by release of ^3H-labeled DNA fragments.
P3X was relatively resistant to DNA fragmentation induced by three chemotherapeutic drugs, etoposide, chlorambucil, and YW-200, relative to SP2 (FIG. 5). YW-200 is an experimental DNA-binding chemotherapeutic drug related to CC-1065 (Wang, Y., et al., U.S. Pat. No. 5,843,937, 1998).

[6] = test system: HL-60 neo cells; test: DNA fragmentation (release of 3H-labeled DNA fragments) in vector control HL-60 neo cells; type: cell-based, human; conditions: neo cell lines (HL-60 neo, PW neo); compound added to inducers
Protocol: The present study evaluated the ability of W-188 to sensitize Bcl-2-overexpressing cells to induce apoptosis. The human myelogenous leukemia, HL-60, and the human B cell leukemia, PW, normally express very low levels of Bcl-2. As a model system, W-188 and various analogs and derivatives were tested in normal HL-60 and PW cells and in Bcl-2-transfected HL-60 and PW cells that overexpress high levels of Bcl-2 (see Gilbert et al., J. Cell Physiol., 1996, 171:299).
As depicted in FIG. 4, HL-60 cells (Panel A) and PW cells (Panel B) cells were exposed to various apoptosis inducers: TNF at 5 ng/ml; etoposide at 20 μM; and UV at 0.08 J/cm^2. The release of 3H-labeled DNA fragments was measured after 5 h. Normal HL-60 and PW cells were equally sensitive to apoptosis inducers as compared with cells that were transfected with vector encoding neomycin resistance (HL-60 neo and PW neo) only. […] W-188 alone was nontoxic. The addition of W-188 to the neo cell lines caused a 1.5-2 fold increase in DNA fragmentation in response to the various apoptosis inducers.

[7] = test system: normal rat intestinal epithelial cells; test: Toxic effects of etoposide on normal intestinal epithelial cells; type: cell-based
Text: (§1) LY-ar was highly resistant to apoptosis induced by y-radiation. […] The apparent selective effects of W-188 may be due to the preferential intracellular accumulation of porphyrin compounds in transformed cells as opposed to normal cells reported previously (Bugelski, P. J., et al., Cancer Res., 1981, 41:4606).

[8] = Body weight of RIF-1 tumor bearing mice
Text: Groups of five mice each were inoculated s.c. with RIF-1 cells. The tumors were allowed to grow for 12 days to a size of 0.5 cm diameter, which was designated day 0. […] The mice were weighed and the tumor size measured every day.

[9] = test system: LY-ar cells; test: Radiation-induced DNA fragmentation in LY-ar cells; type: cell-based, murine; conditions: γ-radiation in the presence of W-188; FIG. 10
Protocol: Additional studies were performed to determine if W-188 could also sensitize cells that naturally express high levels of Bcl-2. Clones were isolated from the murine B cell lymphoma, LY, that naturally express low levels of Bcl-2 (LY-as) or high levels (LY-ar), as described previously (Mirkovic, N., et al., Oncogene, 1997, 15:1461).
as §1

SMILES: CCC1=C(C)C(/C=C2\NC(=O)C(C)=C2CC)=NC/1=C\c1[nH]c(/C=C2\NC(=O)C(C)=C2CC)c(C)c1CC [W-188, etiobiliverdin-IV]
- Intracellular levels of GSH ([1]; W-188 + etoposide, HL-60-Bcl-2 and LY-ar cells): caused depletion of GSH
- Intracellular levels of GSH ([1]; W-188 alone): did not affect intracellular levels of GSH or caspase 3 activity
- Etoposide-induced DNA fragmentation [2]: underwent DNA fragmentation at levels comparable to that observed with the Wehi-vector control
- Activation of AP24 (in words) ([3]; HL-60-Bcl-2 and PW-Bcl-2 exposed to apoptosis inducers): did not activate AP24 unless they were also treated with W-188
- AP24 Activity (AAPVase, nmol/mg/hr) ([3]; HL-60 Bcl-2): 124 nmol/mg/h
- AP24 Activity (AAPVase, nmol/mg/hr) ([3]; PW Bcl-2): 129 nmol/mg/h
- W-188 (μg/mg protein), Cytosol ([4]; HL-60 Bcl-2): 0.25 μg/mg protein
- W-188 (μg/mg protein), Mitochondria ([4]; HL-60 Bcl-2): 10.0 μg/mg protein
- W-188 (μg/mg protein), Nuclei ([4]; HL-60 Bcl-2): 186 μg/mg protein
- W-188 (μg/mg protein), Cytosol ([4]; HL-60 neo): 0 μg/mg protein
- W-188 (μg/mg protein), Mitochondria ([4]; HL-60 neo): 3.3 μg/mg protein
- W-188 (μg/mg protein), Nuclei ([4]; HL-60 neo): 100 μg/mg protein
- Sensitization to drug-induced DNA fragmentation [5]: sensitized P3X to undergo drug-induced DNA fragmentation at levels close to or equal to those of SP2
- Increase in DNA fragmentation in response to apoptosis inducers [6]: 1.5-2 fold
- Effect on toxic effects of etoposide on normal cells [7]: did not increase the toxic effects of etoposide
- Body weight ([8]; W-188 + Dox 5 mg/kg, FIG. 12): did lose weight, but not much more than those mice treated with Dox 5 mg/kg alone
- Body weight ([8]; W-188 alone, data not shown): did not show any decrease in weight
- Radiation-induced DNA fragmentation [9]: underwent DNA fragmentation at levels equal to or exceeding that of LY-as treated with radiation

Source: patent US20030207933A1, “Compositions and methods for increasing the sensitivity of apoptosis-resistant tumor cells to inducers of apoptosis” (priority 2002, published 2003)
